Results from patent publication US11912723B2, “KRAS modulators and uses thereof” (Quanta Therapeutics, Inc., priority 2022, dated 2024).

What was measured:
[1] = biological target: T1, GST-tagged KRAS G12D (2-169) (Homo sapiens, UniProt P01116, G12D); test: Nucleotide exchange assay (NEA), HTRF of SOS-mediated GTP-DY-647P1 binding; type: biochemical; settings: 5 nM GST-KRAS G12D, 20 nM SOScat, 150 nM GTP; compound 1 h at RT
T1 construct: GST-tagged KRAS^G12D (2-169, Reaction Biology, MSC-11-539); purchased Reaction Biology MSC-11-539 (KRAS G12D); MSC-11-502 (SOS1cat)
From the text: This activity is tightly regulated by GTPase activating proteins (GAPs) and guanine nucleotide exchange factors (GEFs). GEFs, such as SOS1/2, activate Ras proteins by exchanging GDP for GTP, thus returning Ras to its active conformation (Simanshu, Nissley, & McCormick, 2017). […] Homogenous time resolved fluorescence (HTRF) was used to detect SOS-mediated binding of a fluorescent GTP analog, GTP-DY-647P1 (Jena Biosciences NU-820-647P1) to GST-tagged KRAS^G12D (2-169, Reaction Biology, MSC-11-539).
GST-tagged KRAS^G12D (2-169) and anti-GST MAb Tb Cryptate Gold (CisBio 61GSTTLB) were diluted into assay buffer (20 mM HEPES, pH 7.3, 150 mM NaCl, 5 mM MgCl2, 0.05% BSA 0.0025% NP40, 1 mM DTT) to prepare a 2.5× donor solution. 5× compound was added to the protein mixture and incubated for 1 h at RT. 2.5× acceptor solution containing SOS1cat (564-1049, Reaction Biology MSC-11-502) and GTP-DY-647P1 were then added to the donor KRAS mixture such that the final concentration of the reaction contained 5 nM GST-tagged KRAS^G12D (2-169), 20 nM SOScat, and 150 nM GTP. The reaction was monitored using at RT with the Envision multimode plate reader (Ex/Em 337/665, […]) up to 90 minutes at 5 minute intervals. Data was blanked to reactions without SOS1 and % inhibition was calculated such that DMSO only=0% and blank=100%. Curve fitting was done using a 4 parameter fit. NEA KRAS G12D ID50 (uM) values of selected compounds are depicted in Table 2 with compounds having a value<0.01 uM as ++++; >0.01 uM to 0.1 uM as +++; >0.1 uM to 1 uM as ++; >1 uM to 20 uM as +; and >20 uM as NA.

KRAS G12D/RAF1 = biological target: T2, KRAS G12D/RAF1 (Homo sapiens, UniProt P01116, G12D); test: Protein-protein interaction (PPI) HTRF assay KRAS G12D/RAF1; type: binding; settings: KRAS G12D/RAF1, GppNHp-loaded KRAS; 30 minutes pre-incubation
T2 construct: KRAS (1-169) proteins were expressed in E. coli at 18° C; His6-MBP (N, cleaved yes); made in house; host or cells: E. coli
Procedure: Biotinylated KRAS wt and KRAS G12DNV proteins were expressed and purified in conditions similar to those previously reported (Tran, et al., 2021) (Zhang, et al., 2020). Briefly, KRAS (1-169) proteins were expressed in E. coli at 18° C. with an upstream TEV cleavage site (ENLFYQS) followed an Avi tag sequence ([…]). KIRAS expression constructs contained both a His6 and maltose-binding protein (MBP) tags at the N-terminus for Ni-NTA column purification prior to overnight TEV cleavage and MBP column purification. The avi-tagged NRAS expression construct contained both a His6 tag and SUMO cleavage sige at the N-terminus for Ni-NTA column purification followed by His-ULP1 digestion overnight. All avi-tagged RAS proteins were dialyzed into buffer containing ATP, biotin, and BirA followed by purification over a second Ni-NTA column and then run over a size exclusion HiLoad™ 26/600 Superdex™ column in 20 mM HEPES, pH 7.5, 300 mM NaCl, 5 mM MgCl2, and 1 mM TCEP. Fractions containing the protein of interest were pooled, concentrated, and confirmed by intact mass spectrometry. To prepare ‘GTP’ loaded KRAS and NRAS, biotinylated KRAS or NRAS was nucleotide exchanged from GDP-bound protein to GppNHp-bound (Jena Biosciences, NU-401-50) protein in the presence of alkaline phosphatase and excess GppNHp as previously described and the resulting nucleotide content was confirmed by HPLC reverse phase analytical chromatography (Donohue, et al., 2019) (Tran, et al., 2021).
His-tagged RAF1 (52-131) was similarly expressed in E. coli at 18° C. overnight with an upstream TEV cleavage site. His-tagged RAF1 expression construct contained both a His6 and MBP tags at the N-terminus for Ni-NTA column purification followed by MBP-tagged TEV digestion overnight. RAF1 protein samples were further purified over a MBP column followed by a Ni-NTA column and a second MBP column. The fractions containing the protein of interest were pooled, concentrated, and further purified over a HiLoad™ 16/600 Superdex™ 75 pg size exclusion column into 20 mM HEPES, pH8.0, 200 mM NaCl, 5 mM TCEP.
When RAS proteins are in the active GTP-bound conformation, they bind the effector protein RAF1 at the N-terminus Ras-binding domain (RBD, residues 52-131) (Tran, et al., 2021). Homogenous time resolved fluorescence (HTRF) was used to monitor the interaction between wt or mutant KRAS and RAF1 or wt NRAS and RAFT. Compounds were assayed in the presence of KRAS G12D/V and RAF1 versus wt KRAS to assess activity against mutant and w.t. KRAS. Similarly, compounds were then assayed in the presence of w.t. NRAS and RAF1 to assess RAS isoform selectivity. In all assay formats, His-tagged RAF1 protein was incubated with the HTRF donor, anti-6His Tb Cryptate gold (Cisbio 61DB10RDF), and biotinylated RAS proteins were incubated with the HTRF acceptor, streptavidin-d2 (CisBio 610SADLA). The intensity of the fluorescence signal emitted is proportional to binding between the two proteins. The donor solution was prepared by mixing 16 nM His-tagged RAF1 in protein dilution buffer with 1:100 anti-6His Tb cryptate in PPI-Terbium detection buffer. 16 nM biotinylated RAS protein was diluted into protein dilution buffer (50 mM Tris-HCl pH 7.5, 150 mM NaCl, 0.1 mM MgCl2, 1 mM TCEP, 0.005% Tween20) and mixed with 1:2000 Streptavidin-d2 diluted in PPI-Terbium detection buffer (CisBio 61DB10RDF). 50× compound in DMSO was mixed with 16 nM KRAS-acceptor solution and incubated for 30 minutes at room temperature. After compound pre-incubation with KRAS, the RAF1 donor solution was added to the KRAS-acceptor solution and incubated for 1 hour at room temperature. The fluorescence signal emitted was monitored at 665 nm and 615 nm using an Envision multimode plate reader. The HTRF ratio (665/615) was calculated and normalized to 0% inhibition in the absence of compound and 100% inhibition in the presence of untagged RAF1 protein. […]

T2 sequence (P01116 1-169 isoform P01116-2 G12D): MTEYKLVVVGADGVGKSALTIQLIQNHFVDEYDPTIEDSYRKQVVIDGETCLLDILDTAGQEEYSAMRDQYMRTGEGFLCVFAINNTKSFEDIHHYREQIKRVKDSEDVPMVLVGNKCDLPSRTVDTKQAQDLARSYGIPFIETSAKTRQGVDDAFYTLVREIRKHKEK
T1 sequence (P01116 2-169 isoform P01116-2 G12D): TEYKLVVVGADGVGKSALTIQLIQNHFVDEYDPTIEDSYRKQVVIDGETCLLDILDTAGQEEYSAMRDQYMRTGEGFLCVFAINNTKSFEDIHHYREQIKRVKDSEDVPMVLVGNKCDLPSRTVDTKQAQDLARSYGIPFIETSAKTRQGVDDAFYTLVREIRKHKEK

| SMILES | IC50 [1] | IC50 (KRAS G12D/RAF1) |
| --- | --- | --- |
| O=C1NC(=O)C2(CCCN(c3nc(OC[C@@]45CCCN4C[C@H](F)C5)nc4c3COC3(CCc5ccc(O)cc53)C4)C2)N1 (mixture of isomers) [Compound 30, 9-[6′-hydroxy-2-[[rac-(2R,8S)-2-fluoro-1,2,3,5,6,7-hexahydropyrrolizin-8-yl]methoxy]spiro[5,8-dihydropyrano[4,3-d]pyrimidine-7,1′-indane]-4-yl]-1,3,9-triazaspiro[4.5]decane-2,4-dione] | 1 to 20 µM | > 100 µM |
| C[C@@]1(O)CCCN(c2nc(OC[C@@]34CCCN3C[C@H](F)C4)nc3c2COC2(CCc4c(Cl)cccc42)C3)C1 (single isomer, unassigned) [Compound 23A, (3R)-1-[(7*)-4′-chloro-2-[[(2R,8S)-2-fluoro-1,2,3,5,6,7-hexahydropyrrolizin-8-yl]methoxy]spiro[5,8-dihydropyrano[4,3-d]pyrimidine-7,1′-indane]-4-yl]-3-methyl-piperidin-3-ol] | 0.1 to 1 µM | > 100 µM |
| O=C1NC(=O)[C@]2(CCCN(c3nc(OC[C@@]45CCCN4C[C@H](F)C5)nc4c3COC3(CCCc5c(Cl)cc(O)cc53)C4)C2)N1 (single isomer, unassigned) [Compound 51B, (5R)-9-[(7*)-5′-chloro-2-[[(2R,8S)-2-fluoro-1,2,3,5,6,7-hexahydropyrrolizin-8-yl]methoxy]-7′-hydroxy-spiro[5,8-dihydropyrano[4,3-d]pyrimidine-7,1′-tetralin]-4-yl]-1,3,9-triazaspiro[4.5]decane-2,4-dione] | 0.01 to 0.1 µM | 10 to 100 µM |
| CN(C)C(=O)c1nn2c(c1Cl)CN(c1nc(OC[C@@]34CCCN3C[C@H](F)C4)nc3c1CN(C)[C@]1(CCCc4ccccc41)C3)CCC2 (single isomer, unassigned) [Compound 64B] | 0.1 to 1 µM | > 100 µM |
| F[C@H]1CN2CCC[C@@]2(COc2nc3c(c(N4C[C@H]5CC[C@@H](C4)N5)n2)COC2(C3)c3ccccc3-c3n[nH]cc32)C1 (stereo partly drawn) [Compound 3, 4′-[(1R,5S)-3,8-diazabicyclo[3.2.1]octan-3-yl]-2′-[[(2R,8S)-2-fluoro-1,2,3,5,6,7-hexahydropyrrolizin-8-yl]methoxy]spiro[2H-indeno[1,2-c]pyrazole-4,7′-5,8-dihydropyrano[4,3-d]pyrimidine]] | 1 to 20 µM | > 100 µM |
| Nc1ccc2c(c1)C1(CCC2)Cc2nc(OC[C@@]34CCCN3C[C@H](F)C4)nc(N3CCCC(O)CC3)c2CO1 (stereo partly drawn) [Compound 13, 1-[7′-amino-2-[[(2R,8S)-2-fluoro-1,2,3,5,6,7-hexahydropyrrolizin-8-yl]methoxy]spiro[5,8-dihydropyrano[4,3-d]pyrimidine-7,1′-tetralin]-4-yl]azepan-4-ol] | 1 to 20 µM | 10 to 100 µM |
| N#CCC1CCCN(c2nc(OC[C@@]34CCCN3C[C@H](F)C4)nc3c2COC2(CCc4c(Cl)cccc42)C3)CC1 (stereo partly drawn) [Compound 19, 2-(1-(4-chloro-2′-(((2R,7aS)-2-fluorotetrahydro-1H-pyrrolizin-7a(5H)-yl)methoxy)-2,3,5′,8′-tetrahydrospiro[indene-1,7′-pyrano[4,3-d]pyrimidin]-4′-yl)azepan-4-yl)acetonitrile] | 1 to 20 µM | > 100 µM |
| N#Cc1ccc2c(c1)C1(CCC2)Cc2nc(OC[C@@]34CCCN3C[C@H](F)C4)nc(N3CCCCCC3)c2CO1 (stereo partly drawn) [Compound 20, 4-(azepan-1-yl)-2-[[(2R,8S)-2-fluoro-1,2,3,5,6,7-hexahydropyrrolizin-8-yl]methoxy]spiro[5,8-dihydropyrano[4,3-d]pyrimidine-7,4′-tetralin]-6′-carbonitrile] | 1 to 20 µM | > 100 µM |
| F[C@H]1CN2CCC[C@@]2(COc2nc3c(c(N4CCCCCC4)n2)COC2(COCc4ccccc42)C3)C1 (stereo partly drawn) [Compound 25, 4-(azepan-1-yl)-2-[[(2R,8S)-2-fluoro-1,2,3,5,6,7-hexahydropyrrolizin-8-yl]methoxy]spiro[5,8-dihydropyrano[4,3-d]pyrimidine-7,4′-isochromane]] | 1 to 20 µM | > 100 µM |
| CN(C)C(=O)c1cc2n(n1)CCCN(c1nc(OC[C@@]34CCCN3C[C@H](F)C4)nc3c1CO[C@]1(CCc4c(Cl)cccc41)C3)C2 [Compound 27A, 5-[(7S)-4′-chloro-2-[[(2R,8S)-2-fluoro-1,2,3,5,6,7-hexahydropyrrolizin-8-yl]methoxy]spiro[5,8-dihydropyrano[4,3-d]pyrimidine-7,1′-indane]-4-yl]-N,N-dimethyl-4,6,7,8-tetrahydropyrazolo[1,5-a][1,4]diazepine-2-carboxamide] | 0.1 to 1 µM | > 100 µM |
| CONC(=O)c1cc2n(n1)CCCN(c1nc(OC[C@@]34CCCN3C[C@H](F)C4)nc3c1CO[C@@]1(CCc4c(Cl)cccc41)C3)C2 [Compound 31, N-methoxy-5-[(7S)-4′-chloro-2-[[(2R,8S)-2-fluoro-1,2,3,5,6,7-hexahydropyrrolizin-8-yl]methoxy]spiro[5,8-dihydropyrano[4,3-d]pyrimidine-7,1′-indane]-4-yl]-4,6,7,8-tetrahydropyrazolo[1,5-a][1,4]diazepine-2-carboxamide] | 0.01 to 0.1 µM | > 100 µM |
| CN(C)C(=O)c1cc2n(n1)CCCN(c1nc(OC[C@@]34CCCN3C[C@H](F)C4)nc3c1COC1(CCc4ccc(O)cc41)C3)C2 (stereo partly drawn) [Compound 32] | 0.01 to 0.1 µM | > 100 µM |
